Laboratory results from PubChem BioAssay (NCI).
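Each compound was tested at five concentrations against cells in 96-well plates for 48 hours. GI50 is the concentration that inhibits growth by half. TGI denotes the concentration required for complete inhibition of growth.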

Tests used:
Test in all cases: growth of human tumour cells (NCI), 48 h
BT-549 breast = system: BT-549 breast
RPMI-8226 leukemia = system: RPMI-8226 leukemia
SNB-75 CNS = system: SNB-75 CNS
HT29 colon = system: HT29 colon
UACC-257 melanoma = system: UACC-257 melanoma
MOLT-4 leukemia = system: MOLT-4 leukemia
COLO 205 colon = system: COLO 205 colon
NCI/ADR-RES ovarian = system: NCI/ADR-RES ovarian
IGROV1 ovarian = system: IGROV1 ovarian
SW-620 colon = system: SW-620 colon
K-562 leukemia = system: K-562 leukemia
SK-MEL-28 melanoma = system: SK-MEL-28 melanoma
HOP-92 NSCLC = system: HOP-92 NSCLC
PC-3 prostate = system: PC-3 prostate
U251 CNS = system: U251 CNS
M14 melanoma = system: M14 melanoma
SK-MEL-2 melanoma = system: SK-MEL-2 melanoma
SF-295 CNS = system: SF-295 CNS
EKVX NSCLC = system: EKVX NSCLC
HCT-116 colon = system: HCT-116 colon
HCC-2998 colon = system: HCC-2998 colon
A549 NSCLC = system: A549 NSCLC
TK-10 renal = system: TK-10 renal
MCF7 breast = system: MCF7 breast
MDA-MB-435 = system: MDA-MB-435
HS 578T breast = system: HS 578T breast
NCI-H522 lung = system: NCI-H522 lung
LOX IMVI melanoma = system: LOX IMVI melanoma
RXF 393 renal = system: RXF 393 renal

## NC(=O)CC1(O)C=C(Br)C(=O)C(Br)=C1
BT-549 breast
  GI50: 1.91 µM
  TGI: 6.97 µM
RPMI-8226 leukemia
  GI50: 2.25 µM
  TGI: 6.82 µM
SNB-75 CNS
  GI50: 12.8 µM
  TGI: 26.2 µM
HT29 colon
  GI50: 4.03 µM
  TGI: 19 µM
UACC-257 melanoma
  GI50: 1.9 µM
  TGI: 4.06 µM
MOLT-4 leukemia
  GI50: 2.29 µM
  TGI: 5.35 µM
COLO 205 colon
  GI50: 1.25 µM
  TGI: 2.63 µM
NCI/ADR-RES ovarian
  GI50: 10.1 µM
  TGI: > 94.4 µM
IGROV1 ovarian
  GI50: 6.57 µM
  TGI: 30 µM
SW-620 colon
  GI50: 1.77 µM
  TGI: 3.47 µM
K-562 leukemia
  GI50: 2.22 µM
  TGI: 8.73 µM
SK-MEL-28 melanoma
  GI50: 1.87 µM
  TGI: 3.7 µM
HOP-92 NSCLC
  GI50: 1.85 µM
  TGI: 4.26 µM
PC-3 prostate
  GI50: 7.65 µM
  TGI: 24.9 µM
U251 CNS
  GI50: 10.6 µM
  TGI: 24.1 µM
M14 melanoma
  GI50: 2.64 µM
  TGI: > 32.8 µM
SK-MEL-2 melanoma
  GI50: 5.21 µM
  TGI: 18.4 µM
SF-295 CNS
  GI50: 12.6 µM
  TGI: 26.5 µM
EKVX NSCLC
  GI50: 5.84 µM
  TGI: 19.7 µM
HCT-116 colon
  GI50: 0.392 µM
  TGI: 10.7 µM
HCC-2998 colon
  GI50: 18.2 µM
  TGI: 33 µM
A549 NSCLC
  GI50: 19 µM
  TGI: 37.8 µM
TK-10 renal
  GI50: 1.65 µM
  TGI: 4.2 µM
MCF7 breast
  GI50: 3.3 µM
  TGI: 15.3 µM
MDA-MB-435
  GI50: 2.04 µM
  TGI: 7.31 µM
HS 578T breast
  GI50: 17.8 µM
  TGI: 46 µM
NCI-H522 lung
  GI50: 0.326 µM
  TGI: 1.44 µM
LOX IMVI melanoma
  GI50: 3.65 µM
  TGI: 13 µM
RXF 393 renal
  GI50: 1.9 µM
  TGI: 4.05 µM
